“Also recorded” adds a separate entry of the source.
How the values were obtained:
[1] = tested on: hornworm nerve cord PDE (cyclic AMP phosphodiesterase); test: Inhibition of cyclic AMP phosphodiesterase activity in homogenates of tobacco hornworm nerve cord; type: biochemical, Manduca sexta; details: for activity of structurally similar compounds tested as described in Example 46: Example 47
Procedure: Nerve cord was dissected from 40-60 mm long M. sexta larvae, cleaned, and homogenized (2 mg/ml) in 6 Mm Tris-maleate, pH 7.4. PDE activity was measured (4 min. incubation at 30° C.) in an assay system (0.1 ml) containing 80 mM Tris-maleate, pH 7.4; 6 mM Mg--SO4; 10^-7 M^3 H-cyclic AMP; and tissue homogenate (0.02 ml). Nerve cord was evaluated in the presence and the absence of the xanthine derivative. For purposes of the evaluation, the rate of formation of ^3 H-5' AMP was measured using the technique described in Filburn, C. […] The values shown in FIG. 1D are the mean (±SEM) of three separate experiments.

[2] = tested on: cockroach brain adenylate cyclase; details: in vitro; cited from earlier work
[3] = tested on: cockroach brain phosphodiesterase; details: in vitro; cited from earlier work
[4] = tested on: Manduca sexta (tobacco hornworm) larvae; test: Antifeeding test: tomato leaves sprayed with compound, tobacco hornworm larvae; type: in vivo; details: for Vmax (percent inhibition of feeding at the highest dose used): highest dose usually a 3% spray solution; for EC50 (spray concentration required to cause 50% inhibition of feeding): spray on tomato leaves, calculated from dose-response curves, Manduca sexta 6 per leaf
[5] = tested on: Tribolium confusum (flower beetle) adults; test: Tribolium confusum adults: acute effect and chronic reproduction test; type: in vivo
[6] = tested on: Tribolium castaneum (flower beetle) adults; test: Tribolium castaneum adults: acute effect and chronic reproduction test; type: in vivo
adenosine receptor = details: Bruns et al., cited from earlier work
Culex (mosquito) larvae = test: Killing of Culex larvae in solution; type: in vivo

Row | Structure (SMILES) | Vmax (percent inhibition of feeding at the highest dose used) [4] [%] | EC50 (spray concentration required to cause 50% inhibition of feeding) [4] | also measured
1 | Cn1c(=O)c2ncn(C)c2n(C)c1=O [1,3,9-trimethyl-xanthine] |  |  | activity of structurally similar compounds tested as described in Example 46 [1]: only weakly active
2 | CNC(=O)O/N=C/C(C)(C)SC [Aldicarb] |  |  | direct effect on cockroach brain adenylate cyclase (in words) [2]: essentially no direct effects
3 | C=CCC1=C(C)C(OC(=O)C2C(C=C(C)C)C2(C)C)CC1=O (stereo not drawn) [Allethrin] |  |  | direct effect on cockroach brain adenylate cyclase (in words) [2]: essentially no direct effects
4 | Clc1ccc(C(c2ccc(Cl)cc2)C(Cl)(Cl)Cl)cc1 [DDT] |  |  | effect on cockroach brain phosphodiesterase (in words) [3]: activators of phosphodiesterase; direct effect on cockroach brain adenylate cyclase (in words) [2]: essentially no direct effects
5 | ClC1=C(Cl)[C@]2(Cl)[C@@H]3[C@@H]4C[C@@H]([C@H]5O[C@@H]45)[C@@H]3[C@@]1(Cl)C2(Cl)Cl [Dieldrin] |  |  | effect on cockroach brain phosphodiesterase (in words) [3]: activators of phosphodiesterase; direct effect on cockroach brain adenylate cyclase (in words) [2]: essentially no direct effects
6 | Cc1cc(OC(=O)N(C)C)nn1C(=O)N(C)C [Dimetilan] |  |  | direct effect on cockroach brain adenylate cyclase (in words) [2]: essentially no direct effects
7 | CCn1c(=O)c2[nH]cnc2n(CC)c1=O [Example 16, 1,3-diethyl-xanthine] | 98 | 0.33 % (gm/100 ml) | 
8 | CCCn1c(=O)c2[nH]cnc2n(CCC)c1=O [Example 17, 1,3-dipropyl-xanthine] | 95 | 0.035 % (gm/100 ml) | 
9 | C=CCn1c(=O)c2[nH]cnc2n(CC=C)c1=O [Example 18, 1,3-diallyl-xanthine] | 99 | 0.35 % (gm/100 ml) | 
10 | O=c1c2[nH]cnc2n(Cc2ccccc2)c(=O)n1Cc1ccccc1 [Example 19, 1,3-dibenzyl-xanthine] | 70 | 0.45 % (gm/100 ml) | 
11 | CC(C)Cn1c(=O)n(C)c(=O)c2[nH]cnc21 [Example 20, 1-methyl,3-isobutyl-xanthine] | 95 | 0.3 % (gm/100 ml) | antifeeding effects in the presence of diltiazem and procaine ([4]; Example 13): neither reversing the observed antifeeding effects; pestistatic and pesticidal effects in the presence of D600, verapamil, and nimodipine ([4]; Example 14): appeared unaffected; potency in disruption of feeding relative to theophylline ([4]; in vivo): about 10 fold; EC50, inhibition of reproduction ([5]; chronic tests): 0.2%; effect on adults ([5]; doses up to 3%): unaffected; EC50, inhibition of reproduction ([6]; chronic tests): 0.2%; effect on adults ([6]; doses up to 3%): unaffected; potency in blocking adenosine receptors compared with theophylline (in words) (adenosine receptor): roughly equally potent; potency in PDE inhibition relative to theophylline [1]: about 10 fold; EC50, killing of larvae (Culex (mosquito) larvae): 0.007%
12 | CC(C)CCn1c(=O)c2[nH]cnc2n(CC(C)C)c1=O [Example 21, 1-isoamyl,3-isobutyl-xanthine] | > 52 | 0.2 % (gm/100 ml) | 
13 | CCn1c(=O)n(CCc2ccccc2)c(=O)c2[nH]cnc21 [Example 22, 1-phenethyl,3-ethyl-xanthine] | 96 | 0.6 % (gm/100 ml) | 
14 | Cn1c(=O)c2c(ncn2CCCl)n(C)c1=O [Example 24, 1,3-dimethyl,7-(2-chlorethyl)-xanthine] | 95 | 0.3 % (gm/100 ml) | 
15 | CC(O)Cn1cnc2c1c(=O)n(C)c(=O)n2C (stereo not drawn) [Example 25, 1,3-dimethyl,7-(beta-hydroxypropyl-xanthine)] | 95 | 1.5 % (gm/100 ml) | 
16 | COc1nc2c(c(=O)n(C)c(=O)n2C)n1C [Example 26, 1,3,7-trimethyl,8-methoxy-xanthine] | 86 | 0.5 % (gm/100 ml) | 
17 | Cn1cnc2c1c(=O)[nH]c(=O)n2C [Example 27, 3,7-dimethyl-xanthine (theobromine), reference compound] | 87 | 1.0 % (gm/100 ml) | 
18 | CCCn1c(=O)c2c(ncn2C)n(CCC)c1=O [Example 28, 1,3-dipropyl,7-methyl-xanthine] | 84 | 0.48 % (gm/100 ml) | 
19 | CCCn1c(=O)c2c(ncn2CCC)n(CCC)c1=O [Example 29, 1,3,7-tripropyl-xanthine] | 95 | 0.19 % (gm/100 ml) | 
20 | CCCn1c(=O)c2c(ncn2Cc2ccccc2)n(CCC)c1=O [Example 30, 1,3-dipropyl,7-benzyl-xanthine] | 96 | 0.08 % (gm/100 ml) | 

Row | Structure (SMILES) | Vmax (percent inhibition of feeding at the highest dose used) [4] [%] | EC50 (spray concentration required to cause 50% inhibition of feeding) [4] | also measured
21 | CCCCn1c(=O)c2[nH]cnc2n(CCCC)c1=O [Example 31, 1,3-dibutyl-xanthine] | 90 | 0.044 % (gm/100 ml) | 
22 | O=c1[nH]c(=O)c2[nH]cnc2[nH]1 [Example 32, xanthine] | 0 | > 3 % (gm/100 ml) | 
23 | Cn1c(=O)[nH]c2nc[nH]c2c1=O [Example 33, 1-methyl-xanthine] | 21 | > 3 % (gm/100 ml) | 
24 | Cn1c(=O)[nH]c(=O)c2[nH]cnc21 [Example 34, 3-methyl-xanthine] | 8 | > 3 % (gm/100 ml) | 
25 | Cn1cnc2[nH]c(=O)[nH]c(=O)c21 [Example 35, 7-methyl-xanthine] | 29 | > 3 % (gm/100 ml) | 
26 | Cc1nc2[nH]c(=O)[nH]c(=O)c2[nH]1 [Example 36, 8-methyl-xanthine] | 35 | > 3 % (gm/100 ml) | 
27 | Cn1c(=O)[nH]c2ncn(C)c2c1=O [Example 38, 1,7-dimethyl-xanthine] | 30 | > 3 % (gm/100 ml) | activity of structurally similar compounds tested as described in Example 46 [1]: inactive
28 | Cn1c(=O)[nH]c2[nH]c(=O)n(C)c2c1=O [Example 39, 1,7-dimethyl-uric acid] | 30 | > 3 % (gm/100 ml) | 
29 | Cn1c(=O)c2c([nH]c(=O)n2C)n(C)c1=O [Example 40, 1,3,7-trimethyl-uric acid] | 40 | > 3 % (gm/100 ml) | 
30 | CC(=O)n1cnc2c1c(=O)n(C)c(=O)n2C [Example 41, 1,3-dimethyl-7-acetyl-xanthine] | 18 | > 3 % (gm/100 ml) | 
31 | Cn1c(=O)c2[nH]c(-c3ccccc3)nc2n(C)c1=O [Example 42, 1,3-dimethyl-8-phenyl-xanthine] | 38 | > 3 % (gm/100 ml) | antifeeding effect (in words) ([4]; FIG. 1C, listed as 8-phenyltheophylline): relatively weak effects; also recorded: little antifeeding effect; Ki (adenosine receptor; Daly 1982): 0.12 to 1 µM; PDE inhibition (in words) ([1]; FIG. 1D): very weak PDE inhibitor
32 | CCCn1c(=O)c2[nH]c(-c3ccccc3)nc2n(CCC)c1=O [Example 43, 1,3-dipropyl-8-phenyl-xanthine] | 0 | > 3 % (gm/100 ml) | 
33 | Cn1c(=O)c2c(nc(Cl)n2C)n(C)c1=O [Example 44, 1,3,7-trimethyl-8-chloro-xanthine] | 40 | > 3 % (gm/100 ml) | 
34 | Cn1c(=O)c2ncn(C)c2n(C)c1=O [Example 45, 1,3,9-trimethyl-xanthine] | 50 | > 3 % (gm/100 ml) | pesticidal and pestistatic activity class (active / inactive / weakly active) ([4]; Table 1 grouping): weakly active
35 | Cc1ccc2nc3sc(=O)sc3nc2c1 [Oxythioquinox] |  |  | effect on cockroach brain phosphodiesterase (in words) [3]: most potent inhibitor; inhibition of cockroach brain phosphodiesterase [3]: over 80%; direct effect on cockroach brain adenylate cyclase (in words) [2]: essentially no direct effects
36 | C=C(C)[C@H]1Cc2c(ccc3c2O[C@@H]2COc4cc(OC)c(OC)cc4[C@@H]2C3=O)O1 [Rotenone] |  |  | direct effect on cockroach brain adenylate cyclase (in words) [2]: essentially no direct effects
37 | CCOP(=O)(OCC)OP(=O)(OCC)OCC [TEPP] |  |  | direct effect on cockroach brain adenylate cyclase (in words) [2]: essentially no direct effects
38 | COP(=O)(OC)Oc1ccc([N+](=O)[O-])cc1 [methylparaoxon] |  |  | direct effect on cockroach brain adenylate cyclase (in words) [2]: essentially no direct effects
39 | COc1ccc(Cc2nccc3cc(OC)c(OC)cc23)cc1OC [papavarine, reference compound] |  |  | EC50, ability of Manducca to feed ([4]; in vivo): 0.1 % spray; Ki ([1]; read-out: Ki, insect PDE): 40 µM
